1 compound from ChEMBL document CHEMBL1124540, “S-(2-oxopentadecyl)-CoA, a nonhydrolyzable analogue of myristoyl-CoA, is a potent inhibitor of myristoyl-CoA:protein N-myristoyltransferase” (J Med Chem, 1989) can be followed below.

The nature of assay [1]: Compound was tested for the competitive inhibition against mouse brain N-Myristoyltransferase. The assay is classed as tissue-based.
Assay [2] is described as follows: Michaelis-Menten constant against myristoyl CoA was determined in mouse. The class given is organism-based.

In assay [1], `CCCCCCCCCCCCCC(=O)CSCCNC(=O)CCNC(=O)C(O)C(C)(C)COP(=O)(O)OP(=O)(O)OC[C@H]1O[C@@H](n2cnc3c(N)ncnc32)[C@H](O)[C@@H]1OP(=O)(O)O` (some centres not stated) gave a Ki of 24 nM. Also, the Michaelis-Menten constant (Km) in assay [2] turned out to be 0.4 µM.
